Assay results as given in patent US10428080B2, “TBK/IKK inhibitor compounds and uses thereof” (Merck Patent GmbH, priority 2015, dated 2019).
Structures can show the parent of a compound that is named as a salt.

How the values were obtained:
[1] = biological target: T1, TBK1 (Homo sapiens, UniProt Q9UHD2); experiment: TBK Biochemical Assay; conditions: read-out: TBK1 IC50
T1 sequence (Q9UHD2 1-729): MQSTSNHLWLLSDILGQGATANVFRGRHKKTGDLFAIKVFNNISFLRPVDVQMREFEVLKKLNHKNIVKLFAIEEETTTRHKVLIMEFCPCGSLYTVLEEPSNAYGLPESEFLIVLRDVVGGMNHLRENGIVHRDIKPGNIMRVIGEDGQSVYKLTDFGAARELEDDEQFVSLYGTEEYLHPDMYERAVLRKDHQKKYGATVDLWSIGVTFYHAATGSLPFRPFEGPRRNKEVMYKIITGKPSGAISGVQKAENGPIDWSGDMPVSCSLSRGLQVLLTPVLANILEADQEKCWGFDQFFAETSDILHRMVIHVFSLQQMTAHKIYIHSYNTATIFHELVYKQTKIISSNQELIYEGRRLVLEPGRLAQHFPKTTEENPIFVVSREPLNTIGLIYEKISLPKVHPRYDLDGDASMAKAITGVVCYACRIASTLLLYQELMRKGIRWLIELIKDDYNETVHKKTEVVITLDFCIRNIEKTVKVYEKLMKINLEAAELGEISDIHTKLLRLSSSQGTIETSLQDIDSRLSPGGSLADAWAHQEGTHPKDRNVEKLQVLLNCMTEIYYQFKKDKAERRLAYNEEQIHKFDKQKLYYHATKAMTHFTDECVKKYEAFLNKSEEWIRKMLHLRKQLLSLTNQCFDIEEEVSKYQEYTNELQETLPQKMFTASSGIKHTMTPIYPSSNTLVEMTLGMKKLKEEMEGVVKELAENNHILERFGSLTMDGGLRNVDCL
Summary of the method: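 TBK1 enzyme and substrate incubated with compounds (10-point 1:4 dilution, top 30 uM final, 1% DMSO) for 90 min at 25° C, then stopped. Substrate/product peaks read by microfluidic mobility-shift (Caliper LabChip); 10 uM staurosporine as full-inhibition control.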

[2] = biological target: T2, IKKε (Homo sapiens, UniProt Q14164); experiment: IKKe Biochemical Assay; conditions: read-out: IKKε IC50
T2 sequence (Q14164 1-716): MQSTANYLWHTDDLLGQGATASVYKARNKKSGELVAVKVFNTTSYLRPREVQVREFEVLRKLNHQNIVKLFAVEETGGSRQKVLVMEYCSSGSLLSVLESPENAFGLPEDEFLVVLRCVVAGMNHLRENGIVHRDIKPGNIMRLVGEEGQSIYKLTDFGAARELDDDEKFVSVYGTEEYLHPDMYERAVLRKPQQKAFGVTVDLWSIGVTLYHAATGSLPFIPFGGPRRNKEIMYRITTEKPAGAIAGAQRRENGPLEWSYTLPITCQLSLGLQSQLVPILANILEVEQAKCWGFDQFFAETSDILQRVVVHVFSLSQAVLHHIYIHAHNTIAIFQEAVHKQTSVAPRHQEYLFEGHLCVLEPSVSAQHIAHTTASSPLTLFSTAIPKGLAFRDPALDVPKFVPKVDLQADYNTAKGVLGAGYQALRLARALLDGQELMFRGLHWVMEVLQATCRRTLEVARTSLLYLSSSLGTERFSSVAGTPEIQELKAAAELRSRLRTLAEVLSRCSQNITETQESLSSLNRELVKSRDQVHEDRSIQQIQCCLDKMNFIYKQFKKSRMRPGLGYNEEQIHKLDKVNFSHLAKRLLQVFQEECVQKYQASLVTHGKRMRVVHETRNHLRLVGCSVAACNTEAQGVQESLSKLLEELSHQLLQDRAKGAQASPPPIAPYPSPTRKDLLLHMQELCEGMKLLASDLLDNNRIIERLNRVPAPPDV
Summary of the method: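 Recombinant IKKε and substrate were incubated with compound (10-point 1:4 series, top 30 uM final, 1% DMSO) for 90 min at 25° C, then stopped. Substrate-to-product conversion was read by LabChip microfluidic mobility shift; 10 uM staurosporine served as full-inhibition wells.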

Row | SMILES | IC50 [1] | IC50 [2]
1 | COc1cc(C(=O)N2CC3CCCC3C2)ccc1-c1cc2nccc(-c3ccc(NC4CCOCC4)c(C#N)c3)c2o1 (centres unmarked) [Compound 137, 5-{2-[4-(Hexahydro-cyclopenta[c]pyrrole-2-carbonyl)-2-methoxy-phenyl]-furo[3,2-b]pyridin-7-yl}-2-(tetrahydro-pyran-4-ylamino)-benzonitrile] | < 100 nM | < 100 nM
2 | COc1cc(C(=O)N(C)C)ccc1-c1cc2nccc(-c3ccc(O[C@H]4CCCNC4)c(C#N)c3)c2o1 [Compound 142, 4-{7-[3-Cyano-4-((S)-piperidin-3-yloxy)-phenyl]-furo[3,2-b]pyridin-2-yl}-3-methoxy-N,N-dimethyl-benzamide] | < 100 nM | < 100 nM
3 | COc1cc(C(=O)N(C)C)ccc1-c1cc2nccc(-c3ccc(OC4CCN(C(C)=O)C4)c(C#N)c3)c2o1 (centres unmarked) [Compound 144, 4-{7-[4-(1-Acetyl-pyrrolidin-3-yloxy)-3-cyano-phenyl]-furo[3,2-b]pyridin-2-yl}-3-methoxy-N,N-dimethyl-benzamide] | < 100 nM | < 100 nM
4 | COc1cc(C(=O)NC2CCN(C(=O)OC(C)(C)C)C2)ccc1-c1cc2nccc(-c3ccc(NC4CCOCC4)c(C#N)c3)c2o1 (centres unmarked) [Compound 147, 3-(4-{7-[3-Cyano-4-(tetrahydro-pyran-4-ylamino)-phenyl]-furo[3,2-b]pyridin-2-yl}-3-methoxy-benzoylamino)-pyrrolidine-1-carboxylic acid tert-butyl ester] | < 100 nM | < 100 nM
5 | COc1cc(C(=O)NCC2CCCCC2(F)F)ccc1-c1cc2nccc(-c3ccc(OC4CCOCC4)c(C#N)c3)c2o1 (centres unmarked) [Compound 151, 4-{7-[3-Cyano-4-(tetrahydro-pyran-4-yloxy)-phenyl]-furo[3,2-b]pyridin-2-yl}-N-(2,2-difluoro-cyclohexylmethyl)-3-methoxy-benzamide] | < 100 nM | < 100 nM
6 | COc1cc(C(=O)N(C)C)ccc1-c1cc2nccc(-c3ccc(OCC4CCNC4)c(C#N)c3)c2o1 (centres unmarked) [Compound 152, 4-{7-[3-Cyano-4-(pyrrolidin-3-ylmethoxy)-phenyl]-furo[3,2-b]pyridin-2-yl}-3-methoxy-N,N-dimethyl-benzamide hydrochloride] | < 100 nM | < 100 nM
7 | COc1cc(C(=O)N(C)C)ccc1-c1cc2nccc(-c3ccc(OC4CCN(C(C)C)C4)c(C#N)c3)c2o1 (centres unmarked) [Compound 157, 4-{7-[3-Cyano-4-(1-isopropyl-pyrrolidin-3-yloxy)-phenyl]-furo[3,2-b]pyridin-2-yl}-3-methoxy-N,N-dimethyl-benzamide] | 100 to 1000 nM | < 100 nM
8 | COc1cc(C(=O)N(C)C)ccc1-c1cc2nccc(-c3ccc(NC4CCCOC4)c(C#N)c3)c2o1 (centres unmarked) [Compound 164] | 100 to 1000 nM | 100 to 1000 nM
9 | COc1cc(C(=O)N(C)C)ccc1-c1cc2nccc(-c3ccc(OCC4CNC4)c(C#N)c3)c2o1 [Compound 165, 4-{7-[4-(Azetidin-3-ylmethoxy)-3-cyano-phenyl]-furo[3,2-b]pyridin-2-yl}-3-methoxy-N,N-dimethyl-benzamide] | 100 to 1000 nM | 100 to 1000 nM
10 | COc1cc(C(=O)NCC2CCCCC2(F)F)ccc1-c1cc2nccc(-c3ccc(NC4CCOCC4)c(C#N)c3)c2o1 (centres unmarked) [Compound 180, 4-{7-[3-Cyano-4-(tetrahydro-pyran-4-ylamino)-phenyl]-furo[3,2-b]pyridin-2-yl}-N-(2,2-difluoro-cyclohexylmethyl)-3-methoxy-benzamide] | 100 to 1000 nM | 100 to 1000 nM
11 | COc1cc(C(=O)N(C)C)ccc1-c1cc2nccc(-c3ccc(OC4CCN(C(=O)OC(C)(C)C)CC4)c(C#N)c3)c2o1 [Compound 182] | > 5000 nM | > 5000 nM
12 | CC(C)(C)OC(=O)Nc1ccc(-c2cc3nccc(-c4ccc(OC5CCOCC5)c(C#N)c4)c3o2)cc1 [Compound 183] | 1000 to 5000 nM | 100 to 1000 nM

Continued, values first:

Row | IC50 [1] | IC50 [2] | SMILES
13 | 100 to 1000 nM | < 100 nM | N#Cc1cc(-c2ccnc3cc(-c4ccc(C(=O)O)cc4)oc23)ccc1OC1CC(CO)(CCl)C1 (centres unmarked) [Compound 162]
14 | 100 to 1000 nM | 100 to 1000 nM | N#Cc1cc(-c2ccnc3cc(-c4ccc(C(=O)O)cc4)oc23)ccc1Oc1ccccc1F [Compound 169, 4-{7-[3-Cyano-4-(2-fluoro-phenoxy)-phenyl]-furo[3,2-b]pyridin-2-yl}-benzoic acid]
15 | 100 to 1000 nM | 100 to 1000 nM | CN(C)C(=O)c1ccc(-c2cc3nccc(-c4ccc(N5CC[C@@H](N(C)C)C5)c(C#N)c4)c3o2)cc1 [Compound 172, 4-{7-[3-Cyano-4-((R)-3-dimethylamino-pyrrolidin-1-yl)-phenyl]-furo[3,2-b]pyridin-2-yl}-N,N-dimethyl-benzamide]
16 | 100 to 1000 nM | 100 to 1000 nM | CN(C)C(=O)c1ccc(-c2cc3nccc(-c4ccc(O[C@H]5CCCOC5)c(C#N)c4)c3o2)cc1 [Compound 174, 4-(7-{3-Cyano-4-[(S)-(tetrahydro-pyran-3-yl)oxy]-phenyl}-furo[3,2-b]pyridin-2-yl)-N,N-dimethyl-benzamide]
17 | 100 to 1000 nM | 100 to 1000 nM | CN(C)C(=O)c1ccc(-c2cc3nccc(-c4ccc(O)c(C#N)c4)c3o2)cc1 [Compound 175, 4-[7-(3-Cyano-4-hydroxy-phenyl)-furo[3,2-b]pyridin-2-yl]-N,N-dimethyl-benzamide]
18 | 100 to 1000 nM | 100 to 1000 nM | CN(C)C(=O)c1ccc(-c2cc3nccc(-c4ccc(Oc5cccc(F)c5)c(C#N)c4)c3o2)cc1 [Compound 176, 4-{7-[3-Cyano-4-(3-fluoro-phenoxy)-phenyl]-furo[3,2-b]pyridin-2-yl}-N,N-dimethyl-benzamide]
19 | 100 to 1000 nM | 100 to 1000 nM | CN(C)C(=O)c1ccc(-c2cc3nccc(-c4ccc(Oc5ccccc5F)c(C#N)c4)c3o2)cc1 [Compound 178, 4-{7-[3-Cyano-4-(2-fluoro-phenoxy)-phenyl]-furo[3,2-b]pyridin-2-yl}-N,N-dimethyl-benzamide]
20 | 100 to 1000 nM | 100 to 1000 nM | CN(C)C(=O)c1ccc(-c2cc3nccc(-c4ccc(Oc5cccnc5)c(C#N)c4)c3o2)cc1 [Compound 181, 4-{7-[3-Cyano-4-(pyridin-3-yloxy)-phenyl]-furo[3,2-b]pyridin-2-yl}-N,N-dimethyl-benzamide]
21 | 1000 to 5000 nM | 100 to 1000 nM | CC1CC(Oc2ccc(-c3ccnc4cc(-c5ccc(C(=O)N(C)C)cc5)oc34)cc2C#N)CCO1 (centres unmarked) [Compound 184, 4-{7-[3-Cyano-4-(2-methyl-tetrahydro-pyran-4-yloxy)-phenyl]-furo[3,2-b]pyridin-2-yl}-N,N-dimethyl-benzamide]
22 | 1000 to 5000 nM | 100 to 1000 nM | CN(C)C(=O)c1ccc(-c2cc3nccc(-c4ccc(OC5CCNCC5)c(C#N)c4)c3o2)cc1 [Compound 185, 4-{7-[3-Cyano-4-(piperidin-4-yloxy)-phenyl]-furo[3,2-b]pyridin-2-yl}-N,N-dimethyl-benzamide hydrochloride]
23 | 1000 to 5000 nM | 100 to 1000 nM | N#Cc1cc(-c2ccnc3cc(-c4ccc(C(=O)O)cc4)oc23)ccc1Oc1cccnc1 [Compound 186, 4-{7-[3-Cyano-4-(pyridin-3-yloxy)-phenyl]-furo[3,2-b]pyridin-2-yl}-benzoic acid]
24 | 1000 to 5000 nM | 100 to 1000 nM | CCOC(=O)c1ccc(-c2cc3nccc(-c4ccc(N5CC[C@H](F)C5)c(C#N)c4)c3o2)cc1 [Compound 187, 4-{7-[3-Cyano-4-((S)-3-fluoro-pyrrolidin-1-yl)-phenyl]-furo[3,2-b]pyridin-2-yl}-benzoic acid ethyl ester]
25 | 1000 to 5000 nM | 1000 to 5000 nM | N#Cc1cc(-c2ccnc3cc(-c4ccc(C(=O)O)cc4)oc23)ccc1Oc1cccc(F)c1 [Compound 188, 4-{7-[3-Cyano-4-(3-fluoro-phenoxy)-phenyl]-furo[3,2-b]pyridin-2-yl}-benzoic acid]
